{"source": "patent US20210261570A1", "about": "“ANTIBIOTIC RESISTANCE BREAKERS” (KING'S COLLEGE LONDON, priority 2017, published 2021)", "key": {"[1]": {"test_system": "Staphylococcus aureus ATCC29213", "assay": "Murine model of thigh infection (neutropenic ICR mice)", "conditions": "for decrease of thigh bacterial burden compared to vehicle group: 8 h and 14 h post infection", "text": "40 Male mice used in these study were supplied by Charles River UK and were specific pathogen free. The strain of mouse used was Hsd:ICR (CD-1®), which is a well characterized outbred strain. Mice were 11-15 g on receipt at Evotec's facility and were allowed to acclimatize for minimum of 7 days prior to infection. Mice were approximately 28 g at the start of the study. Mice were housed in sterile individual ventilated cages exposing animals at all times to HEPA filtered sterile air. Mice had free access to food and water (sterile) and had sterile aspen chip bedding. The room temperature was 22° C.±1° C., with a relative humidity of 50-60% and maximum background noise of 56 dB. Mice were exposed to 12 hour light/dark cycles with dawn/dusk phases.\nAll mice were rendered neutropenic by immunosuppression with cyclophosphamide at 150 mg/kg 4 days before infection and then 100 mg/kg 1 day before infection administered by intraperitoneal injection. The immunosuppression regime leads to neutropenia starting 24 hours post administration of the first injection, which continues throughout the study. Mice were infected approximately 24 hours after the second dose of immunosuppressive agent.\nStaphylococcus aureus ATCC29213 was used for the study.\nWhilst still under anaesthesia mice were administered a single dose of buprenorphine (0.03 mg/kg) subcutaneously for pain relief.\nTest articles and comparator were prepared in stock solutions at 10× concentration as described in Table 20. The stock solutions were prepared in aliquots (1 aliquot per time of dosing) and frozen at −20° C. The solutions were thawed and then diluted in water just before dosing to obtain the appropriate concentration of 5 mg/mL or 2 mg/mL for oral administration at 10 mL/kg of the dose of 50 mg/kg or 20 mg/kg respectively (Table 20). 10% DMSO in water was used as the vehicle\nAfter sacrifice of animal, both posterior thighs were removed, weighed, then homogenised in 2 mL PBS using a Precellys bead beater and the homogenates individually quantitatively cultured on CLED agar to determine the bacterial burdens.\nThe data from the culture burdens were analysed using appropriate non-parametric statistical models (Kruskal-Wallis using Conover-Inman to make all pairwise comparisons between groups) with StatsDirect software v. 2.7.8., and compared to pre-treatment and vehicle controls."}, "Safetyscreen44 panel [2]": {"molecular_target": "Safetyscreen44 panel (Homo sapiens, UniProt P21728)", "sequence (P21728 whole entry)": "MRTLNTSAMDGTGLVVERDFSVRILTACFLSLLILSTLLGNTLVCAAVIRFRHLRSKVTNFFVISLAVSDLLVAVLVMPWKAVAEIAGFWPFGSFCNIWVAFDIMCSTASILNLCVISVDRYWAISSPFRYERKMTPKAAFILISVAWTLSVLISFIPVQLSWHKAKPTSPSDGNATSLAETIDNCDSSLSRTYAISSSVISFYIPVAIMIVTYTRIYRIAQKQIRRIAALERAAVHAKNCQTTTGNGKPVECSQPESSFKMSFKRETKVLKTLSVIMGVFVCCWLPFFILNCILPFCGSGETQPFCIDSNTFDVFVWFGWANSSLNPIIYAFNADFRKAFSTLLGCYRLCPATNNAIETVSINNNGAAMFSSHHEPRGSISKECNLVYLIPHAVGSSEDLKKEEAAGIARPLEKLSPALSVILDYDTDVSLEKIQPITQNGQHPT", "conditions": "D1 (h) (antagonist radioligand)"}, "Safetyscreen44 panel [3]": {"test_system": "Safetyscreen44 panel"}, "[4]": {"test_system": "Neisseria gonorrhoeae strains", "format": "cell-based", "text": "Untreated controls and blank wells were included."}}, "note": "Several values for one entry are separate records, joined by “and”; a condition that tells them apart may be missing. Equal values may be shown once. Read-outs that look alike come from different tables or passages of the source."}
{"smiles": "C[C@H]1COc2c(N3CC[C@@H](Nc4ncccn4)C3)c(F)cc3c(=O)c(C(=O)O)cn1c23", "note": "[KSN-82-L22]", "values": [{"measurement": "Bodyweight raw data, individual mouse", "setting": "[1]; 20 mg/kg group, day 0 (day of infection)", "value": "29.4 and 27.2 and 30.5 and 29.7"}, {"measurement": "Bodyweight raw data, individual mouse", "setting": "[1]; 20 mg/kg group, day 1 post infection", "value": "29.3 and 29.5 and 27.5 and 31.3 and 31.0"}, {"measurement": "Bodyweight raw data, individual mouse", "setting": "[1]; 20 mg/kg group, day −1 post infection (before treatment)", "value": "29.1 and 29.2 and 27.3 and 30.2 and 29.8"}, {"measurement": "Bodyweight raw data, individual mouse", "setting": "[1]; 20 mg/kg group, day −4 post infection (before treatment)", "value": "28.7 and 30.2 and 26.9 and 29.8 and 29.7"}, {"measurement": "decrease of thigh bacterial burden compared to vehicle group", "setting": "[1]; 20 mg/kg/dose oral at 2 h, 18 h post infection", "value": "5 log10 CFU/g and > 5 log10 CFU/g"}, {"measurement": "Bodyweight raw data, individual mouse", "setting": "[1]; 50 mg/kg group, day 0 (day of infection)", "value": "28.2 and 27.8 and 29.3 and 26.6 and 25.6"}, {"measurement": "Bodyweight raw data, individual mouse", "setting": "[1]; 50 mg/kg group, day 1 post infection", "value": "29 and 28.1 and 30.1 and 26.1 and 26.4"}, {"measurement": "Bodyweight raw data, individual mouse", "setting": "[1]; 50 mg/kg group, day −1 post infection (before treatment)", "value": "27.9 and 29.5 and 29.1 and 26.5 and 26.8"}, {"measurement": "Bodyweight raw data, individual mouse", "setting": "[1]; 50 mg/kg group, day −4 post infection (before treatment)", "value": "27.8 and 29.2 and 28.9 and 27.0 and 27.9"}, {"measurement": "decrease of thigh bacterial burden compared to vehicle group", "setting": "[1]; 50 mg/kg/dose oral at 2 h, 18 h post infection", "value": "> 5", "unit": "log10 CFU/g"}, {"measurement": "thigh bacterial burden, result in words", "setting": "[1]; 20 and 50 mg/kg, 18 h post infection", "value": "significantly decreased bacterial burden"}, {"measurement": "body weights following infection", "setting": "[1]; infected neutropenic mice, treated groups", "value": "slightly increased"}, {"measurement": "Statistic analysis of thigh burden, P versus ML-83-009 20 mg/kg", "setting": "[1]; substance at 20 mg/kg", "value": "P < 0.0001"}, {"measurement": "Statistic analysis of thigh burden, P versus ML-83-009 50 mg/kg", "setting": "[1]; substance at 20 mg/kg", "value": "P = 0.0002"}, {"measurement": "Statistic analysis of thigh burden, P versus Pre treatment", "setting": "[1]; substance at 20 mg/kg", "value": "P = 0.0139"}, {"measurement": "Statistic analysis of thigh burden, P versus Vehicle", "setting": "[1]; substance at 20 mg/kg", "value": "P < 0.0001"}, {"measurement": "Statistic analysis of thigh burden, P versus ML-83-009 20 mg/kg", "setting": "[1]; substance at 50 mg/kg", "value": "P < 0.0001"}, {"measurement": "Statistic analysis of thigh burden, P versus ML-83-009 50 mg/kg", "setting": "[1]; substance at 50 mg/kg", "value": "P < 0.0001"}, {"measurement": "Statistic analysis of thigh burden, P versus Pre treatment", "setting": "[1]; substance at 50 mg/kg", "value": "P = 0.0026"}, {"measurement": "Statistic analysis of thigh burden, P versus Vehicle", "setting": "[1]; substance at 50 mg/kg", "value": "P < 0.0001"}, {"measurement": "% inhibition", "setting": "Safetyscreen44 panel [2]", "value": "−15.4033", "unit": "%"}, {"measurement": "% inhibition", "setting": "Safetyscreen44 panel [3]; KV channel (antagonist radioligand)", "value": "−4.644", "unit": "%"}, {"measurement": "% inhibition", "setting": "Safetyscreen44 panel [3]; alpha 2A (h) (antagonist radioligand)", "value": 4.4791, "unit": "%"}, {"measurement": "MIC", "setting": "[4]; strain 2007NG046, resistance PEN-R CFM-R CPD-R CIP-R", "value": 4, "unit": "µg/mL"}, {"measurement": "MIC", "setting": "[4]; strain 2008NG057, resistance PEN-R CFM-R CPD-R CIP-R", "value": 2, "unit": "µg/mL"}, {"measurement": "MIC", "setting": "[4]; strain 2008NG097, resistance PEN-R CFM-R CPD-R CIP-R", "value": 2, "unit": "µg/mL"}, {"measurement": "MIC", "setting": "[4]; strain 2009NG514, resistance PEN-R CPD-R CIP-R", "value": 2, "unit": "µg/mL"}, {"measurement": "MIC", "setting": "[4]; strain 2010NG122, resistance PEN-R CFM-R CIP-R", "value": 2, "unit": "µg/mL"}, {"measurement": "MIC", "setting": "[4]; strain ATCC 49226, resistance PEN-I TET-I", "value": "≤0.03125", "unit": "µg/mL"}, {"measurement": "MIC", "setting": "[4]; strain ATCC 700825, resistance —", "value": "≤0.03125", "unit": "µg/mL"}, {"measurement": "MIC", "setting": "[4]; strain BAA-1833, resistance PEN-I TET-I", "value": "≤0.03125", "unit": "µg/mL"}, {"measurement": "MIC", "setting": "[4]; strain BAA-1838, resistance —", "value": "≤0.03125", "unit": "µg/mL"}, {"measurement": "MIC", "setting": "[4]; strain CCUG 57595, resistance —", "value": "≤0.03125", "unit": "µg/mL"}, {"measurement": "MIC", "setting": "[4]; strain CCUG 57596, resistance CIP-I PEN-I TET-R", "value": 0.125, "unit": "µg/mL"}, {"measurement": "MIC", "setting": "[4]; strain CCUG 57597, resistance FEP-NS FOX-I CAZ-NS CIP-R OFX-R PEN-R TET-R", "value": 2, "unit": "µg/mL"}, {"measurement": "MIC", "setting": "[4]; strain CCUG 57598, resistance FOX-R CAZ-NS CRO-NS CIP-R OFX-R PEN-R TET-R", "value": 2, "unit": "µg/mL"}, {"measurement": "MIC", "setting": "[4]; strain CCUG 57599, resistance CIP-R OFX-R PEN-R TET-R", "value": 0.5, "unit": "µg/mL"}, {"measurement": "MIC", "setting": "[4]; strain CCUG 57600, resistance CIP-R OFX-R PEN-R TET-R", "value": 1, "unit": "µg/mL"}, {"measurement": "MIC", "setting": "[4]; strain CCUG 57601, resistance PEN-R TET-R", "value": "≤0.03125", "unit": "µg/mL"}, {"measurement": "MIC", "setting": "[4]; strain CCUG 57602, resistance PEN-I TET-I", "value": 0.0625, "unit": "µg/mL"}, {"measurement": "MIC", "setting": "[4]; strain FDA-CDC AR-BANK#0165, resistance CIP-R PEN-I TET-R", "value": 2, "unit": "µg/mL"}, {"measurement": "MIC", "setting": "[4]; strain FDA-CDC AR-BANK#0166, resistance CIP-R PEN-I TET-R", "value": 2, "unit": "µg/mL"}, {"measurement": "MIC", "setting": "[4]; strain FDA-CDC AR-BANK#0167, resistance CIP-S PEN-S TET-I", "value": "≤0.03125", "unit": "µg/mL"}, {"measurement": "MIC", "setting": "[4]; strain FDA-CDC AR-BANK#0168, resistance CIP-R PEN-I TET-R", "value": 1, "unit": "µg/mL"}, {"measurement": "MIC", "setting": "[4]; strain FDA-CDC AR-BANK#0169, resistance CIP-R PEN-I TET-R", "value": 2, "unit": "µg/mL"}, {"measurement": "MIC", "setting": "[4]; strain FDA-CDC AR-BANK#0170, resistance CIP-R PEN-I TET-R", "value": 2, "unit": "µg/mL"}, {"measurement": "MIC", "setting": "[4]; strain FDA-CDC AR-BANK#0171, resistance CIP-R PEN-I TET-R", "value": 1, "unit": "µg/mL"}, {"measurement": "MIC", "setting": "[4]; strain FDA-CDC AR-BANK#0172, resistance CIP-R PEN-R TET-R", "value": 1, "unit": "µg/mL"}]}
